According to patent US6737383B1, “Herbicidal oxadiazolidines” (priority 1999, dated 2004):

What was measured:
bedstraw = assay: Test B pre/postemergence bedstraw; format: in vivo, Galium aparine
Procedure, shortened: (§1)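 Response is a visual 0-to-10 score relative to untreated plants, where 0 means no effect and 10 means complete control, taken twelve to sixteen days after application. Treatments went onto soil at planting and onto foliage of 1- to 4-leaf plants, using a surfactant-containing non-phytotoxic solvent.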

blackgrass = assay: Test B pre/postemergence blackgrass; format: in vivo, Alopecurus myosuroides
Procedure, shortened: as §1

surinam grass = assay: Test B pre/postemergence surinam grass; format: in vivo, Brachiaria decumbens
Procedure, shortened: as §1

cocklebur = assay: Test B pre/postemergence cocklebur; format: in vivo, Xanthium strumarium
Procedure, shortened: as §1

corn = assay: Test B pre/postemergence corn; format: in vivo, Zea mays
Procedure, shortened: as §1

crabgrass = assay: Test B pre/postemergence crabgrass; format: in vivo, Digitaria sanguinalis
Procedure, shortened: as §1

giant foxtail = assay: Test B pre/postemergence giant foxtail; format: in vivo, Setaria faberii
Procedure, shortened: as §1

morningglory = assay: Test B pre/postemergence morningglory; format: in vivo, Ipomoea hederacea
Procedure, shortened: as §1

soybean = assay: Test B pre/postemergence soybean; format: in vivo, Glycine max
Procedure, shortened: as §1

velvetleaf = assay: Test B pre/postemergence velvetleaf; format: in vivo, Abutilon theophrasti; conditions: for Plant response rating, Velvetleaf: Rate 250 g/ha
Procedure, shortened: as §1

wheat = assay: Test B pre/postemergence wheat; format: in vivo, Triticum aestivum; conditions: for Plant response rating, Wheat: Rate 250 g/ha
Procedure, shortened: as §1

wild oat = assay: Test B pre/postemergence wild oat; format: in vivo, Avena fatua; conditions: for Plant response rating, Wild oats: Rate 250 g/ha
Procedure, shortened: as §1

purple nutsedge = assay: Test B pre/postemergence purple nutsedge; format: in vivo, Cyperus rotundus
Procedure, shortened: as §1

rice = assay: Test B flood test rice; format: in vivo, Oryza sativa
Procedure, shortened: (§2)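 Read-out is a visual response score from 0 (no effect) to 10 (complete control), assigned by comparison with untreated controls. Treatment was applied at the 2-leaf stage, and plants stayed in the greenhouse for twelve to sixteen days before scoring.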

smallflower flatsedge = assay: Test B flood test smallflower flatsedge; format: in vivo, Cyperus difformis
Procedure, shortened: as §2

duck salad = assay: Test B flood test duck salad; format: in vivo, Heteranthera limosa
Procedure, shortened: as §2

bamyardgrass = assay: Test B flood test barnyardgrass; format: in vivo, Echinochloa crus-galli
Procedure, shortened: as §2

[1] = Postemergence, Rate 62 g/ha, scale 0 to 10, 0 is no effect, 10 is complete control
[2] = Postemergence, Rate 250 g/ha, scale 0 to 10, 0 no effect, 10 complete control
[3] = Preemergence, Rate 62 g/ha, scale 0 to 10 (0 no effect, 10 complete control)
[4] = Preemergence, Rate 125 g/ha, scale 0 to 10 (0 no effect, 10 complete control)
[5] = Preemergence, Rate 250 g/ha, scale of 0 to 10 where 0 is no effect and 10 is complete control
[6] = Rate 125 g/ha, Postemergence, scale 0 to 10, 0 no effect, 10 complete control
[7] = Rate 500 g/ha, Postemergence, scale 0 to 10, 0 no effect, 10 complete control
[8] = Postemergence, Rate 125 g/ha, scale of 0 to 10 where 0 is no effect and 10 is complete control
[9] = Rate 62 g/ha, Postemergence, scale of 0 to 10 where 0 is no effect and 10 is complete control
[10] = Preemergence, Rate 125 g/ha, 0 is no effect, 10 is complete control
[11] = Preemergence, scale of 0 to 10 where 0 is no effect and 10 is complete control
[12] = Postemergence, scale 0 to 10, 0 is no effect, 10 is complete control
[13] = Postemergence (flood test species), Rate 125 g/ha, scale of 0 to 10 where 0 is no effect and 10 is complete control
[14] = Rate 62 g/ha, Postemergence section, flood test species, scale of 0 to 10 where 0 is no effect and 10 is complete control
[15] = Rate 250 g/ha, Postemergence (flood test), scale 0 to 10, 0 is no effect, 10 is complete control
[16] = Rate 500 g/ha, listed under Postemergence (flood test species), scale 0 to 10, 0 no effect, 10 complete control
[17] = flood test, listed under Postemergence, Rate 250 g/ha, scale 0 to 10, 0 no effect, 10 complete control

CCc1noc(CC)c1-n1c(=O)on(C(=O)N(c2ccc(F)cc2)C(C)C)c1=O [Compound 102]
4: Plant response rating, Giant foxtail (giant foxtail; [4])
2: Plant response rating, Blackgrass (blackgrass; [5]) | Corn plant response rating (corn; [7]) | Giant foxtail plant response rating (giant foxtail; [3]) | Giant foxtail plant response rating (giant foxtail; [7])
5: Crabgrass plant response rating (crabgrass; [7])
3: Bedstraw plant response rating (bedstraw; [7]) | Morningglory plant response rating (morningglory; [7]) | Velvetleaf plant response rating (velvetleaf; [7])
9: Plant response rating, Giant foxtail (giant foxtail; [5])
1: Morningglory plant response rating (morningglory; [2])
0: Bedstraw plant response rating (bedstraw; [1]) | Bedstraw plant response rating (bedstraw; [2]) | Bedstraw plant response rating (bedstraw; [3]) | Plant response rating, Bedstraw (bedstraw; [4]) | Plant response rating, Bedstraw (bedstraw; [5]) | Bedstraw plant response rating (bedstraw; [6]) | Blackgrass plant response rating (blackgrass; [8]) | Blackgrass plant response rating (blackgrass; [2]) | Blackgrass plant response rating (blackgrass; [3]) | Plant response rating, Blackgrass (blackgrass; [4]) | Blackgrass plant response rating (blackgrass; [9]) | Blackgrass plant response rating (blackgrass; [7]) | B. signalgrass plant response rating (surinam grass; [1]) | B. signalgrass plant response rating (surinam grass; [2]) | B. signalgrass plant response rating (surinam grass; [3]) | Plant response rating, B. signalgrass (surinam grass; [4]) | Plant response rating, B. signalgrass (surinam grass; [5]) | B. signalgrass plant response rating (surinam grass; [6]) | B. signalgrass plant response rating (surinam grass; Rate 500 g/ha, Postemergence, scale of 0 to 10 where 0 is no effect and 10 is complete control) | Cocklebur plant response rating (cocklebur; [8]) | Cocklebur plant response rating (cocklebur; [2]) | Cocklebur plant response rating (cocklebur; [3]) | Plant response rating, Cocklebur (cocklebur; [4]) | Plant response rating, Cocklebur (cocklebur; [5]) | Cocklebur plant response rating (cocklebur; [9]) | Cocklebur plant response rating (cocklebur; [7]) | Corn plant response rating (corn; [8]) | Corn plant response rating (corn; [2]) | Corn plant response rating (corn; [3]) | Plant response rating, Corn (corn; [4]) | Plant response rating, Corn (corn; [5]) | Corn plant response rating (corn; [9]) | Crabgrass plant response rating (crabgrass; [8]) | Crabgrass plant response rating (crabgrass; [2]) | Crabgrass plant response rating (crabgrass; [3]) | Plant response rating, Crabgrass (crabgrass; [4]) | Plant response rating, Crabgrass (crabgrass; [5]) | Crabgrass plant response rating (crabgrass; [9]) | Giant foxtail plant response rating (giant foxtail; [8]) | Giant foxtail plant response rating (giant foxtail; [2]) | Giant foxtail plant response rating (giant foxtail; [9]) | Morningglory plant response rating (morningglory; [8]) | Morningglory plant response rating (morningglory; [3]) | Plant response rating, Morningglory (morningglory; [4]) | Plant response rating, Morningglory (morningglory; [5]) | Morningglory plant response rating (morningglory; [9]) | Soybean plant response rating (soybean; [8]) | Soybean plant response rating (soybean; [3]) | Plant response rating, Soybean (soybean; [4]) | Plant response rating, Soybean (soybean; [5]) | Soybean plant response rating (soybean; [9]) | Plant response rating, Soybean (soybean; Rate 250 g/ha, Postemergence, scale 0 to 10, 0 is no effect, 10 is complete control) | Soybean plant response rating (soybean; [7]) | Velvetleaf plant response rating (velvetleaf; [8]) | Velvetleaf plant response rating (velvetleaf; [3]) | Velvetleaf plant response rating (0 to 10 scale) (velvetleaf; [10]) | Plant response rating, Velvetleaf (velvetleaf; [11]) | Velvetleaf plant response rating (velvetleaf; [9]) | Plant response rating, Velvetleaf (velvetleaf; [12]) | Wheat plant response rating (wheat; [8]) | Wheat plant response rating (wheat; [3]) | Wheat plant response rating (0 to 10 scale) (wheat; [10]) | Plant response rating, Wheat (wheat; [11]) | Wheat plant response rating (wheat; [9]) | Plant response rating, Wheat (wheat; [12]) | Wheat plant response rating (wheat; [7]) | Wild oats plant response rating (wild oat; [8]) | Wild oats plant response rating (wild oat; [3]) | Wild oats plant response rating (0 to 10 scale) (wild oat; [10]) | Plant response rating, Wild oats (wild oat; [11]) | Wild oats plant response rating (wild oat; [9]) | Plant response rating, Wild oats (wild oat; [12]) | Wild oats plant response rating (wild oat; [7]) | Nutsedge plant response rating (purple nutsedge; [8]) | Nutsedge plant response rating (purple nutsedge; [2]) | Nutsedge plant response rating (purple nutsedge; [3]) | Plant response rating, Nutsedge (purple nutsedge; [4]) | Plant response rating, Nutsedge (purple nutsedge; [5]) | Nutsedge plant response rating (purple nutsedge; [9]) | Nutsedge plant response rating (purple nutsedge; [7]) | Rice plant response rating (rice; [13]) | Rice plant response rating (rice; [14]) | Plant response rating, Rice (rice; [15]) | Rice plant response rating (rice; [16]) | S. Flatsedge plant response rating (smallflower flatsedge; [13]) | S. Flatsedge plant response rating (smallflower flatsedge; [14]) | Plant response rating, S. Flatsedge (smallflower flatsedge; [15]) | S. Flatsedge plant response rating (smallflower flatsedge; [16]) | Ducksalad plant response rating (duck salad; [13]) | Ducksalad plant response rating (duck salad; [14]) | Ducksalad plant response rating (duck salad; [16]) | Ducksalad plant response rating (duck salad; [17]) | Barnyardgrass plant response rating (bamyardgrass; [1]) | Barnyardgrass plant response rating (bamyardgrass; Rate 125 g/ha, Postemergence section (flood test species), scale 0 to 10, 0 no effect, 10 complete control) | Barnyardgrass plant response rating (bamyardgrass; [16]) | Barnyardgrass plant response rating (bamyardgrass; [17])
